Data from ChEMBL document CHEMBL1275354, “Anticonvulsant activity of 2,4(1H)-diarylimidazoles in mice and rats acute seizure models” (Bioorg Med Chem, 2010).
Active and inactive are the calls of the source. The calls are words filed in the database; no cut-off is given here.

What was measured:
[1] = system: Mus musculus; test: Neurotoxicity in albino CF1 mouse assessed as minimal motor impairment at 100 mg/kg, ip after 0.5 hrs by rotarod test; assay type: toxicity, organism-based; set-up: dose 100 mg/kg, route intraperitoneal; conditions: in vivo
[2] = system: Mus musculus; test: Neurotoxicity in albino CF1 mouse assessed as minimal motor impairment at 30 mg/kg, ip after 4 hrs by rotarod test; assay type: toxicity, organism-based; set-up: dose 30 mg/kg, route intraperitoneal; conditions: in vivo
[3] = system: Mus musculus; test: Anticonvulsant activity in albino CF1 mouse assessed as protection against maximal electroshock-induced seizures at 300 mg/kg, ip after 0.5 hrs; assay type: functional, organism-based; set-up: dose 300 mg/kg
[4] = system: Mus musculus; test: Anticonvulsant activity against subcutaneous metrazole-induced seizures in ip dosed albino CF1 mouse assessed as minimum effective dose after 4 hrs; assay type: functional; conditions: albino CF1, 4 h, read-out: MED
[5] = system: Mus musculus; test: Anticonvulsant activity in albino CF1 mouse assessed as protection against maximal electroshock-induced seizures at 100 mg/kg, ip after 4 hrs; assay type: functional, organism-based; set-up: dose 100 mg/kg
[6] = system: Mus musculus; test: Neurotoxicity in albino CF1 mouse assessed as minimal motor impairment at 30 mg/kg, ip after 0.5 hrs by rotarod test; assay type: toxicity, organism-based; set-up: dose 30 mg/kg, route intraperitoneal; conditions: in vivo
[7] = system: Mus musculus; test: Anticonvulsant activity in albino CF1 mouse assessed as protection against maximal electroshock-induced seizures at 300 mg/kg, ip after 4 hrs; assay type: functional, organism-based; set-up: dose 300 mg/kg
[8] = system: Mus musculus; test: Anticonvulsant activity in albino CF1 mouse assessed as protection against subcutaneous metrazole-induced seizures at 30 mg/kg, ip after 4 hrs; assay type: functional, organism-based; set-up: dose 30 mg/kg
[9] = system: Mus musculus; test: Anticonvulsant activity in albino CF1 mouse assessed as protection against subcutaneous metrazole-induced seizures at 100 mg/kg, ip after 4 hrs; assay type: functional, organism-based; set-up: dose 100 mg/kg
[10] = system: Mus musculus; test: Neurotoxicity in albino CF1 mouse assessed as minimal motor impairment at 300 mg/kg, ip after 0.5 hrs by rotarod test; assay type: toxicity, organism-based; set-up: dose 300 mg/kg, route intraperitoneal; conditions: in vivo
[11] = system: Mus musculus; test: Anticonvulsant activity against subcutaneous metrazole-induced seizures in ip dosed albino CF1 mouse assessed as minimum effective dose after 0.5 hrs; assay type: functional; conditions: albino CF1, 0.5 h, read-out: MED
[12] = system: Mus musculus; test: Anticonvulsant activity in albino CF1 mouse assessed as protection against subcutaneous metrazole-induced seizures at 100 mg/kg, ip after 0.5 hrs; assay type: functional, organism-based; set-up: dose 100 mg/kg
[13] = system: Mus musculus; test: Neurotoxicity in albino CF1 mouse assessed as minimal motor impairment at 100 mg/kg, ip after 4 hrs by rotarod test; assay type: toxicity, organism-based; set-up: dose 100 mg/kg, route intraperitoneal; conditions: in vivo
[14] = system: Mus musculus; test: Neurotoxicity in albino CF1 mouse assessed as minimal motor impairment at 30 to 300 mg/kg, po after 4 hrs by rotarod test; assay type: toxicity, organism-based; set-up: dose 30-300 mg/kg, route oral; conditions: in vivo
[15] = system: Mus musculus; test: Neurotoxicity in ip dosed albino CF1 mouse assessed as minimum dose required to cause toxicity after 4 hrs by rotarod test; assay type: organism-based; conditions: in vivo
[16] = system: Mus musculus; test: Anticonvulsant activity in albino CF1 mouse assessed as protection against subcutaneous metrazole-induced seizures at 300 mg/kg, ip after 4 hrs; assay type: functional, organism-based; set-up: dose 300 mg/kg
[17] = system: Mus musculus; test: Neurotoxicity in albino CF1 mouse assessed as minimal motor impairment at 30 to 300 mg/kg, ip after 0.5 hrs by rotarod test; conditions: in vivo
[18] = system: Mus musculus; test: Anticonvulsant activity in albino CF1 mouse assessed as protection against subcutaneous metrazole-induced seizures at 300 mg/kg, ip after 0.5 hrs; assay type: functional, organism-based; set-up: dose 300 mg/kg
[19] = system: Mus musculus; test: Anticonvulsant activity in albino CF1 mouse assessed as protection against maximal electroshock-induced seizures at 30 mg/kg, ip after 4 hrs; assay type: functional, organism-based; set-up: dose 30 mg/kg
[20] = system: Mus musculus; test: Anticonvulsant activity against maximal electroshock-induced seizures in ip dosed albino CF1 mouse assessed as minimum effective dose after 0.5 hrs; assay type: functional; conditions: read-out: MED
[21] = system: Mus musculus; test: Anticonvulsant activity in albino CF1 mouse assessed as protection against maximal electroshock-induced seizures at 100 mg/kg, ip after 0.5 hrs; assay type: functional, organism-based; set-up: dose 100 mg/kg
[22] = system: Mus musculus; test: Anticonvulsant activity in albino CF1 mouse assessed as protection against subcutaneous metrazole-induced seizures at 30 mg/kg, ip after 0.5 hrs; assay type: functional, organism-based; set-up: dose 30 mg/kg
[23] = system: Mus musculus; test: Neurotoxicity in albino CF1 mouse assessed as minimal motor impairment at 300 mg/kg, ip after 4 hrs by rotarod test; assay type: toxicity, organism-based; set-up: dose 300 mg/kg, route intraperitoneal; conditions: in vivo
[24] = system: Mus musculus; test: Neurotoxicity in ip dosed albino CF1 mouse assessed as minimum dose required to cause toxicity after 0.5 hrs by rotarod test; assay type: organism-based; conditions: in vivo
[25] = system: Mus musculus; test: Anticonvulsant activity against maximal electroshock-induced seizures in ip dosed albino CF1 mouse assessed as minimum effective dose after 4 hrs; assay type: functional; conditions: read-out: MED
[26] = system: Mus musculus; test: Anticonvulsant activity in albino CF1 mouse assessed as protection against maximal electroshock-induced seizures at 30 mg/kg, ip after 0.5 hrs; assay type: functional, organism-based; set-up: dose 30 mg/kg

Compound	Activity [2]	Activity [3]	minimal effective dose [4] [mg/kg]	Activity [6]	Activity [7]	Activity [8]	Activity [9]	Activity [10]	minimal effective dose [11] [mg/kg]	Activity [12]	Activity [13]	MED [15] [mg/kg]	Activity [17]	Activity [19]	minimal effective dose [20] [mg/kg]	Activity [22]	Activity [23]	MED [24] [mg/kg]	minimal effective dose [25] [mg/kg]	Activity [26]	other results
FC(F)(F)c1cccc(-c2c[nH]c(-c3ccc(Cl)cc3)n2)c1	Non-toxic	inactive	> 300	Non-toxic	inactive	inactive	inactive	Non-toxic	> 300	inactive	Non-toxic	> 300	Non-toxic	inactive	> 300	inactive	Non-toxic	> 300	> 300	inactive	Activity [1]: Non-toxic; Activity [5]: inactive; Activity [14]: Non-toxic; Activity [16]: inactive; Activity [18]: inactive; Activity [21]: inactive
O=[N+]([O-])c1ccc(-c2nc(-c3ccccc3)c[nH]2)cc1	Non-toxic	Active	100	Non-toxic	Active	inactive	inactive	Non-toxic	> 300	inactive	Non-toxic	> 300	Non-toxic	inactive	100	inactive	Non-toxic	> 300	100	inactive	Activity [1]: Non-toxic; Activity [14]: Non-toxic; Activity [18]: inactive
Clc1ccc(-c2nc(-c3ccccc3)c[nH]2)cc1	Non-toxic	inactive	> 300	Non-toxic	inactive	inactive	inactive	Non-toxic	> 300	inactive	Non-toxic	> 300	Non-toxic	inactive	> 300	inactive	Non-toxic	> 300	> 300	inactive	Activity [1]: Non-toxic; Activity [5]: inactive; Activity [14]: Non-toxic; Activity [16]: inactive; Activity [18]: inactive; Activity [21]: inactive
c1ccc(-c2c[nH]c(-c3ccco3)n2)cc1	Non-toxic	Active	> 300	Non-toxic	Active	inactive	inactive	Toxic	> 300	inactive	Non-toxic	100	Non-toxic	inactive	100	inactive	Toxic	100	100	inactive	Activity [1]: Non-toxic; Activity [5]: inactive; Activity [16]: inactive; Activity [18]: inactive
FC(F)(F)c1cccc(-c2c[nH]c(-c3cccc(C(F)(F)F)c3)n2)c1	Non-toxic	inactive	> 300	Non-toxic	Active	inactive	inactive	Non-toxic	> 300	inactive	Non-toxic	> 300	Non-toxic	inactive	> 300	inactive	Non-toxic	> 300	100	–	Activity [1]: Non-toxic; Activity [14]: Non-toxic; Activity [16]: inactive; Activity [18]: inactive; Activity [21]: inactive
COc1cccc(-c2nc(-c3ccccc3)c[nH]2)c1	Non-toxic	Active	> 300	Non-toxic	Active	inactive	inactive	–	> 300	inactive	Non-toxic	> 300	Non-toxic	inactive	> 30	inactive	Non-toxic	> 30	100	inactive	Activity [1]: Toxic; Activity [14]: Non-toxic; Activity [21]: Active
c1ccc(-c2c[nH]c(-c3ccoc3)n2)cc1	Non-toxic	Active	> 300	Non-toxic	–	inactive	inactive	Toxic	> 300	inactive	Non-toxic	> 100	Non-toxic	inactive	100	inactive	Toxic	100	> 300	inactive	Activity [5]: inactive; Activity [14]: Non-toxic
c1ccc(-c2c[nH]c(-c3ccncc3)n2)cc1	Non-toxic	Active	> 300	Non-toxic	Active	inactive	inactive	Toxic	> 300	inactive	Non-toxic	100	Non-toxic	inactive	100	inactive	Toxic	100	100	inactive	Activity [18]: inactive
O=[N+]([O-])c1ccc(-c2c[nH]c(-c3ccccc3)n2)cc1	Non-toxic	Active	> 300	Non-toxic	Active	inactive	inactive	Non-toxic	> 300	inactive	Non-toxic	> 300	Non-toxic	inactive	100	inactive	Non-toxic	> 300	100	inactive	Activity [1]: Non-toxic; Activity [5]: inactive; Activity [14]: Non-toxic; Activity [16]: inactive; Activity [18]: inactive
